Results on 41 compounds are retold here after US20240360114A1 (SIRONAX LTD., priority 2021, published 2024).

Broadly, the EC50 is the concentration that produces a half-maximal response.

The first experiment concerns HT-1080 cells. Put plainly: HT-1080 cell viability assay (ferroptosis induced by RSL3, Cell Titer-Glo). The class given is cell-based. The note with it: Homo sapiens, HT-1080, 20 h, ferroptosis inducer RSL3, 20 hours, ferroptosis inhibitory activity, Table 2. The method, then:
Example 2. Determination of EC50 Values in HT-1080 Cell Viability Assay
HT-1080 (ATCC, CCL-121) cells (6000 in 100 μl) were seeded in 96-well plates (Corning) and cultured in a 37° C. incubator with a humidified atmosphere of 5% CO2 for overnight. Cells were then treated with ferroptosis inducer RSL3 (TargetMol) and a 3-fold, 10-point serial dilution series of compounds with 1.1 μM as the highest concentration, for 20 hours. Cell viability was assessed using the Cell Titer-Glo Kit (Promega). The luminescence intensity was measured with a microplate reader (Envision, PerkinElmer), and cell viability was calculated by normalizing the data to untreated controls. The EC50 values of the compounds (e.g., Compounds 1-573 and 574-661) were calculated in GraphPad Prism (GraphPad Software, Inc., San Diego, CA, USA). The curves were fitted using a non-linear regression model with a sigmoidal dose response.
In general terms: Cellular ATP, detected with luciferase, serves as a proxy for viable cell number.
Compound `CC(C)(C)c1ccc(NC2CCCC(N)C2)cc1` (single isomer, unassigned) [Compound 149A, N1-(4-(tert-butyl)phenyl)cyclohexane-1,3-diamine] displayed an EC50 of 0.1 to 1 µM.
Same read-out and setting: in the case of `COCCc1ccc(NC2CCC(N)CC2)cc1CCOC` (centres unmarked) [Compound 352, N1-(3,4-bis(2-methoxyethyl)phenyl)cyclohexane-1,4-diamine] it was 1 to 10 µM.
Still for that read-out and setting: in the case of `CCOCCCc1ccc(NC2CCC(N)CC2)cc1` (centres unmarked) [Compound 262, (1s,4s)-N1-(4-(3-ethoxypropyl)phenyl)cyclohexane-1,4-diamine] it was 0.1 to 1 µM.
As for `CC(C)C1CCN(c2ncc(NC3CCC(C)(N)CC3)cn2)CC1` (centres unmarked) [Compound 50, N1-(2-(4-isopropylpiperidin-1-yl)pyrimidin-5-yl)-4-methylcyclohexane-1,4-diamine], the EC50 lay within 0.0001 to 0.1 µM.
Same read-out and setting: in the case of `Cc1nc(N2CCC(C(F)(F)F)CC2)ccc1NC1CCC(CN)CC1` (centres unmarked) [Compound 25, N-(4-(aminomethyl)cyclohexyl)-2-methyl-6-(4-(trifluoromethyl)piperidin-1-yl)pyridin-3-amine] it was 0.0001 to 0.1 µM; in that of `O=C(NCC1CCC(Nc2ccc(N3CCC(C(F)(F)F)CC3)cc2)CC1)C1CCNC1` (centres unmarked) [Compound 19, N-((4-((4-(4-(trifluoromethyl)piperidin-1-yl)phenyl)amino)cyclohexyl)methyl)pyrrolidine-3-car boxamide], 0.0001 to 0.1 µM; in that of `CC(C)C1CCN(c2ncc(NC3C4CC5CC3CC(CN)(C5)C4)cn2)CC1` (centres unmarked) [Compound 370, N-(5-(aminomethyl)adamantan-2-yl)-2-(4-isopropylpiperidin-1-yl)pyrimidin-5-amine], 0.0001 to 0.1 µM.
The compound `CC(C)C1CCN(c2ncc(NC3C[C@H]4CC(N)C[C@H]4C3)cn2)CC1` (stereo partly drawn) [Compound 362, (3aR, 6aS)-N2-(2-(4-isopropylpiperidin-1-yl)pyrimidin-5-yl) octahydropentalene-2,5-diamine] came in with an EC50 of 0.0001 to 0.1 µM.
`CCN1C(C)CN(c2ccc(NC[C@H]3CC[C@H](N)CC3)cc2)CC1C` (some centres unmarked) [Compound 532, N-(((1r,4r)-4-aminocyclohexyl)methyl)-4-(4-ethyl-3,5-dimethylpiperazin-1-yl)aniline] showed an EC50 of 0.1 to 1 µM.
On the same count and under the same terms, in the case of `CCN(CCCOC)c1ccc(NC[C@H]2CC[C@H](N)CC2)cc1` [Compound 385, N1-(((1r,4r)-4-aminocyclohexyl)methyl)-N4-ethyl-N4-(3-methoxypropyl) benzene-1,4-diamine] it was 0.1 to 1 µM; in that of `CCc1ccc(NC2CCC(N)CC2)cc1` (centres unmarked) [Compound 125, N1-(4-ethylphenyl)cyclohexane-1,4-diamine], 0.1 to 1 µM; in that of `COC1CCN(c2ccc(NC3CC4(CC(N)C4)C3)c(C)n2)CC1` (centres unmarked) [Compound 527], 0.0001 to 0.1 µM.
For the compound `CC(C)(C)c1ccc(NC2CCC(NCCN)CC2)cc1` (centres unmarked) [Compound 268, 1-N-(2-aminoethyl)-N4-(4-(tert-butyl)phenyl)cyclohexane-1,4-diamine], the EC50 lay within 0.0001 to 0.1 µM.
Take `CN(C)CC1CCC(Nc2ccc(C(C)(C)C)cc2)CC1` (centres unmarked) [Compound 196, 4-(tert-butyl)-N-(4-((dimethylamino)methyl)cyclohexyl)aniline]: the concentration for a half-maximal effect (EC50) was 0.0001 to 0.1 µM.
On to `CC1CC(Nc2ccc(C(C)(C)C)cc2)CCC1N` (centres unmarked) [Compound 250A, N1-(4-(tert-butyl)phenyl)-3-methylcyclohexane-1,4-diamine], for which the EC50 was in the range of 0.0001 to 0.1 µM.
Regarding `CC(C)(CN1CCCC1)Nc1ccc(C(C)(C)C)cc1` [Compound 227, 4-(tert-butyl)-N-(2-methyl-1-(pyrrolidin-1-yl)propan-2-yl)aniline], the concentration giving a half-maximal response (EC50) lay in the range of 1 to 10 µM.
The same measure, in the same setting: the same measure for `Cc1nc(N2CCOC(C)C2)ccc1NC1C2CC3CC1CC(N)(C3)C2` (centres unmarked) [Compound 518, N4-(2-methyl-6-(2-methylmorpholino)pyridin-3-yl)adamantane-1,4-diamine]: 0.0001 to 0.1 µM; for `CCNc1ccc(N2CCC(C(F)(F)F)CC2)cc1` [Compound 13, N-ethyl-4-(4-(trifluoromethyl)piperidin-1-yl)aniline]: 0.0001 to 0.1 µM; for `CCCc1ccc(NC2CCC(N)CC2)cc1` (single isomer, unassigned) [Compound 135A, N1-(4-propylphenyl)cyclohexane-1,4-diamine]: 0.1 to 1 µM.
With `NC1CCC(Nc2ccc(C3CCC(C(F)(F)F)CC3)cc2)CC1` (centres unmarked) [Compound 280, N1-(4-(4-(trifluoromethyl)cyclohexyl)phenyl)cyclohexane-1,4-diamine], the EC50 was in the range of 0.0001 to 0.1 µM.
`CN[C@H]1CC[C@H](CNc2ccc(N3CC(C)OC(C)C3)cc2)CC1` (some centres unmarked) [Compound 420, 4-(2,6-dimethylmorpholino)-N-(((1r,4r)-4-(methylamino)cyclohexyl)methyl)aniline] showed an EC50 of 0.0001 to 0.1 µM.
Compound `CC1CN(c2ccc3cc(NC4CC5(CC(N)C5)C4)ccc3c2)CC(C)O1` (centres unmarked) [Compound 564, N^2-(6-(2,6-dimethylmorpholino)naphthalen-2-yl)spiro[3.3]heptane-2,6-diamine] yielded a concentration giving a half-maximal response (EC50) of 0.0001 to 0.1 µM.
Regarding `NC1CCC(Nc2ccc(C3CC3)cc2)CC1` (centres unmarked) [Compound 181, N1-(4-cyclopropylphenyl)cyclohexane-1,4-diamine], the EC50 was 0.1 to 1 µM.
For `CC(C)(C)c1ccc(NCCN2CCCC2)cc1` [Compound 202, 2-(pyrrolidin-1-yl) acetaldehyde--4-(tert-butyl)-N-(2-(pyrrolidin-1-yl)ethyl)aniline-4-(tert-butyl)aniline], the EC50 is 1 to 10 µM.
The compound `CC(C)Oc1ccc(NC[C@H]2CC[C@H](N)CC2)cc1` [Compound 353, N-(((1r,4r)-4-aminocyclohexyl)methyl)-4-isopropoxyaniline] registered an EC50 of 0.0001 to 0.1 µM.
Regarding `CC(C)(C)c1ccc(NC2CCC(N)C2)cc1` (centres unmarked) [Compound 124, N1-(4-(tert-butyl)phenyl)cyclopentane-1,3-diamine], the EC50 is 0.1 to 1 µM.
`CC(C)(C)c1ccc(NC2CC3(CC(N)C3)C2)cc1` (centres unmarked) [Compound 276, N2-(4-(tert-butyl)phenyl)spiro[3.3]heptane-2,6-diamine] registered an EC50 of 0.0001 to 0.1 µM.
With `NC1CCC(Nc2ccncc2)CC1` (centres unmarked) [Compound 199, N1-(pyridin-4-yl)cyclohexane-1,4-diamine], the EC50 was in the range of 1 to 10 µM.
The same measure, in the same setting: in the case of `Cn1cc(NCC2CCC(Nc3ccc(C(C)(C)C)cc3)CC2)cn1` (centres unmarked) [Compound 346, N-((4-((4-(tert-butyl)phenyl)amino)cyclohexyl)methyl)-1-methyl-1H-pyrazol-4-amine] it was 0.0001 to 0.1 µM.
Still for that read-out and setting: in the case of `CC1CCN(c2ncc(NC[C@H]3CC[C@H](N)CC3)cc2C(F)(F)F)CC1` [Compound 396, N-(((1r,4r)-4-aminocyclohexyl)methyl)-6-(4-methylpiperidin-1-yl)-5-(trifluoromethyl)pyridin-3-amine] it was 0.0001 to 0.1 µM.
The compound `NC1CCC(Nc2cnc(N3CCC(C(F)(F)F)CC3)cn2)CC1` (centres unmarked) [Compound 52, N1-(5-(4-(trifluoromethyl)piperidin-1-yl)pyrazin-2-yl)cyclohexane-1,4-diamine] registered an EC50 of 0.0001 to 0.1 µM.
In turn, `COCCN(C)CCNc1ccc(C(C)(C)C)cc1` [Compound 211, N1-(4-(tert-butyl)phenyl)-N2-(2-methoxyethyl)-N2-methylethane-1,2-diamine] returned an EC50 of 1 to 10 µM.
Take `CC(C)(C)c1ccc(NC2CCC(NCCO)CC2)cc1` (centres unmarked) [Compound 230, 2-((4-((4-(tert-butyl)phenyl)amino)cyclohexyl)amino)ethan-1-ol]: the 50% effective concentration (EC50) lay within 0.0001 to 0.1 µM.
The same measure, in the same setting: in the case of `CC1(C)CCC(c2ccc(NC3CC(C(N)=O)C3)cc2)CC1` (centres unmarked) [Compound 145, 3-((4-(4,4-dimethylcyclohexyl)phenyl)amino)cyclobutane-1-carboxamide] it was 0.0001 to 0.1 µM.

The same experiment, now with this note: Homo sapiens, HT-1080, 20 h, ferroptosis inducer RSL3, 20 hours, ferroptosis inhibitory activity, Table 3.
As to `Cc1nc(N2CCOC3(CC3)C2)ccc1NC1CC2(CC(N)C2)C1` (centres unmarked) [Compound 623, N^2-(2-methyl-6-(4-oxa-7-azaspiro[2.5]octan-7-yl)pyridin-3-yl)spiro[3.3]heptane-2,6-diamine], the EC50 lay in the range of 0.0001 to 0.1 µM.
On the same count and under the same terms, the same measure for `Cc1cc(N2CC(C)N(CC(F)(F)F)C(C)C2)ccc1NC1CC2(CC(N)C2)C1` (centres unmarked) [Compound 636, N2-(4-(3,5-dimethyl-4-(2,2,2-trifluoroethyl)piperazin-1-yl)-2-methylphenyl)spiro[3.3]heptane-2,6-diamine]: 0.0001 to 0.1 µM; for `Cc1nc(N2CC[Si](C)(C)CC2)ccc1NC1CC(N)C1` (centres unmarked) [Compound 608, N1-(6-(4,4-dimethyl-1,4-azasilinan-1-yl)-2-methylpyridin-3-yl)cyclobutane-1,3-diamine]: 0.0001 to 0.1 µM.
The compound `NC(=O)N1CCC(Nc2ccc3cc(N4CCC(C(F)(F)F)CC4)ccc3c2)CC1` [Compound 633, 4-((6-(4-(trifluoromethyl)piperidin-1-yl)naphthalen-2-yl)amino)piperidine-1-carboxamide] registered a half-maximal effective concentration (EC50) of 0.0001 to 0.1 µM.
On the same count and under the same terms, the same measure for `Cc1cc(NC[C@H]2CC[C@H](N)CC2)ccc1NC(C)(C)C` [Compound 622, N^4-(((1r,4r)-4-aminocyclohexyl)methyl)-N′-(tert-butyl)-2-methylbenzene-1,4-diamine]: 0.0001 to 0.1 µM.

Staying with this experiment, now noted: Homo sapiens, ferroptosis inducer RSL3, 20 hours, ferroptosis inhibitory activity, Table 2.
With `CN1CCN(CC(=O)N2CCC(Nc3ccc(C(C)(C)C)cc3)CC2)CC1=O` [Compound 222, 4-(2-{4-[(4-tert-butylphenyl)amino]piperidin-1-yl}-2-oxoethyl)-1-methylpiperazin-2-one], the EC50 lay in the range of 1 to 10 µM.
For the compound `NC1CCC(Nc2ccc3cc(N4CCC(C(F)(F)F)CC4)ccc3c2)CC1` (centres unmarked) [Compound 561, N1-(6-(4-(trifluoromethyl)piperidin-1-yl)naphthalen-2-yl)cyclohexane-1,4-diamine], the concentration for a half-maximal effect (EC50) was in the range of 0.0001 to 0.1 µM.
